Each compound was assayed against ERK2 (Homo sapiens, UniProt P28482) (assay: ERK2 inhibition assay (spectrophotometric coupled-enzyme assay)). Settings: ERK2 Inhibitory Activity (Ki class D-F).
Type: biochemical
Description: The IC50 was evaluated from the rate data as a function of inhibitor concentration. […] The compound numbers correspond to the compound numbers in Table 1.

Sequence of ERK2 (P28482 whole entry): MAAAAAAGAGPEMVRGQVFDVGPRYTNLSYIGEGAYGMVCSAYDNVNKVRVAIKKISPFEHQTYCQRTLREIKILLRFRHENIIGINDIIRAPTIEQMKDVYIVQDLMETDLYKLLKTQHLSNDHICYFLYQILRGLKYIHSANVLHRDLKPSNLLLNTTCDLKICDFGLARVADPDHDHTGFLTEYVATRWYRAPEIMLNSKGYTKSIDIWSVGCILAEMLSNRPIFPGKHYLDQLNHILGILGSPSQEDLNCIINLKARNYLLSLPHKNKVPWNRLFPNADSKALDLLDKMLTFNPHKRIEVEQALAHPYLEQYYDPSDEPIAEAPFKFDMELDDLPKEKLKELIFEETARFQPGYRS

Compound | Ki [nM]
Cc1cnc(Nc2nc(N3CCCCC3)nc3ccccc23)nc1-c1c[nH]c(C(=O)NCc2ccccc2)c1 [III-a-133, 4-[5-Methyl-2-(2-piperidin-1-yl-quinazolin-4-ylamino)-pyrimidin-4-yl]-1H-pyrrole-2-carboxylic acid benzylamide] | > 1000

Same assay, conditions: read-out: ERK2 Inhibitory Activity (Ki class D-F)

Compound | Ki [nM]
CCNc1ncc(C)c(-c2c[nH]c(C(=O)NC(CO)C(O)c3ccccc3)c2)n1 (stereo not shown) [III-a-170, 4-(2-Ethylamino-5-methyl-pyrimidin-4-yl)-1H-pyrrole-2-carboxylic acid (2-hydroxy-1-hydroxymethyl-2-phenyl-ethyl)-amide] | > 1000
O=C(NCc1ccc2c(c1)OCO2)c1cc(-c2nc(Nc3ccccc3)ncc2-c2cc(Cl)cc(Cl)c2)c[nH]1 [III-a-103, 4-[5-(3,5-Dichloro-phenyl)-2-phenylamino-pyrimidin-4-yl]-1H-pyrrole-2-carboxylic acid (benzo[1,3]dioxol-5-ylmethyl)-amide] | > 1000
CCNc1ncc(C)c(-c2c[nH]c(C(=O)NC(C)C(O)c3ccccc3)c2)n1 (stereo not shown) [III-a-168, 4-(2-Ethylamino-5-methyl-pyrimidin-4-yl)-1H-pyrrole-2-carboxylic acid (2-hydroxy-1-methyl-2-phenyl-ethyl)-amide] | > 1000
CCN(CC)CCNc1ncc(C)c(-c2c[nH]c(C(=O)NCc3ccc(F)c(F)c3)c2)n1 [III-a-132, 4-[2-(2-Diethylamino-ethylamino)-5-methyl-pyrimidin-4-yl]-1H-pyrrole-2-carboxylic acid 3i4-difluoro-benzylamide] | > 1000
COCc1cnc(Nc2ccccc2)nc1-c1c[nH]c(C(=O)NC(CO)c2ccccc2)c1 (stereo not shown) [III-a-160, 4-(5-Methoxymethyl-2-phenylamino-pyrimidin-4-yl)-1H-pyrrole-2-carboxylic acid (2-hydroxy-1-phenyl-ethyl)-amide] | 100 to 1000
CCNc1ncc(C)c(-c2c[nH]c(C(=O)NC3CC3)c2)n1 [III-a-114, 4-(2-Ethylamino-5-methyl-pyrimidin-4-yl)-1H-pyrrole-2-carboxylic acid cyclopropylamide] | > 1000
Cc1cnc(NC(CO)CO)nc1-c1c[nH]c(C(=O)NC(CO)c2ccccc2)c1 (stereo not shown) [III-a-235, 4-[2-(2-Hydroxy-1-hydroxymethyl-ethylamino)-5-methyl-pyrimidin-4-yl]-1H-pyrrole-2-carboxylic acid (2-hydroxy-1-phenyl-ethyl)-amide] | < 100
Nc1ncc(-c2cc(F)cc(C(F)(F)F)c2)c(-c2c[nH]c(C(=O)NC(CO)c3ccccc3)c2)n1 (stereo not shown) [III-a-105, 4-[2-Amino-5-(3-fluoro-5-trifluoromethyl-phenyl)-pyrimidin-4-yl]-1H-pyrrole-2-carboxylic acid (2-hydroxy-1-phenyl-ethyl)-amide] | 100 to 1000
CCNc1ncc(C)c(-c2c[nH]c(C(=O)NC(C(C)=O)c3ccccc3)c2)n1 (stereo not shown) [III-a-197, 4-(2-Ethylamino-5-methyl-pyrimidin-4-yl)-1H-pyrrole-2-carboxylic acid (2-oxo-1-phenyl-propyl)-amide] | > 1000
Cc1cnc(NN(C)C)nc1-c1c[nH]c(C(=O)N[C@H](CO)c2ccccc2)c1 [III-a-226, 4-[2-(N′,N′-Dimethyl-hydrazino)-5-methyl-pyrimidin-4-yl]-1H-pyrrole-2-carboxylic acid (2-hydroxy-1-(S)-phenyl-ethyl)-amide] | < 100
CCNc1ncc(C)c(-c2c[nH]c(C(=O)NCC(O)c3ccccc3)c2)n1 (stereo not shown) [III-a-169, 4-(2-Ethylamino-5-methyl-pyrimidin-4-yl)-1H-pyrrole-2-carboxylic acid (2-hydroxy-2-phenyl-ethyl)-amide] | 100 to 1000
CCNc1ncc(C)c(-c2c[nH]c(C(=O)NC(CO)c3ccccc3F)c2)n1 (stereo not shown) [III-a-192, 4-(2-Ethylamino-5-methyl-pyrimidin-4-yl)-1H-pyrrole-2-carboxylic acid [1-(2-fluoro-phenyl)-2-hydroxy-ethyl]-amide] | 100 to 1000
Cc1cnc(Nc2ccccc2)nc1-c1c[nH]c(C(=O)NCCN)c1 [III-a-120, 4-(5-Methyl-2-phenylamino-pyrimidin-4-yl)-1H-pyrrole-2-carboxylic acid (2-amino-ethyl)-amide] | 100 to 1000
CCC(CO)Nc1ncc(C)c(-c2c[nH]c(C(=O)NC(CO)c3cccc(C)c3)c2)n1 (stereo not shown) [III-a-234, 4-[2-(1-Hydroxymethyl-propylamino)-5-methyl-pyrimidin-4-yl]-1H-pyrrole-2-carboxylic acid (2-hydroxy-1-m-tolyl-ethyl)-amide] | < 100
CC(C(O)c1ccccc1)N(C)C(=O)c1cc(-c2ccnc(N)n2)c[nH]1 (stereo not shown) [III-a-180, 4-(2-Amino-pyrimidin-4-yl)-1H-pyrrole-2-carboxylic acid (2-hydroxy-1-methyl-2-phenyl-ethyl)-methyl-amide] | > 1000
Cc1cnc(Nc2ccon2)nc1-c1c[nH]c(C(=O)NC(CO)c2ccccc2)c1 (stereo not shown) [III-a-221, 4-[2-(Isoxazol-3-ylamino)-5-methyl-pyrimidin-4-yl]-1H-pyrrole-2-carboxylic acid (2-hydroxy-1-phenyl-ethyl)-amide] | < 100
CCC(CO)Nc1ncc(C)c(-c2c[nH]c(C(=O)NC(CO)c3ccccc3)c2)n1 (stereo not shown) [III-a-236, 4-[2-(1-Hydroxymethyl-propylamino)-5-methyl-pyrimidin-4-yl]-1H-pyrrole-2-carboxylic acid (2-hydroxy-1-phenyl-ethyl)-amide] | < 100
CCCNC(=O)c1cc(-c2nc(Nc3ccccc3)ncc2C)c[nH]1 [III-a-111, 4-(5-Methyl-2-phenylamino-pyrimidin-4-yl)-1H-pyrrole-2-carboxylic acid propylamide] | < 100
Cc1cnc(N)nc1-c1c[nH]c(C(=O)NCCc2cccnc2)c1 [III-a-107, 4-(2-Amino-5-methyl-pyrimidin-4-yl)-1H-pyrrole-2-carboxylic acid (2-pyridin-3′-yl-ethyl)-amide] | > 1000
COCc1cnc(N)nc1-c1c[nH]c(C(=O)N[C@H](CO)c2ccccc2)c1 [III-a-161, 4-(2-Amino-5-methoxymethyl-pyrimidin-4-yl)-1H-pyrrole-2-carboxylic acid (2-hydroxy-1-phenyl-ethyl)-amide] | 100 to 1000
CCNc1ncc(C)c(-c2c[nH]c(C(=O)NC(CO)C(O)c3ccccc3)c2)n1 (stereo not shown) [III-a-171, 4-(2-Ethylamino-5-methyl-pyrimidin-4-yl)-1H-pyrrole-2-carboxylic acid (2-hydroxy-1-hydroxymethyl-2-phenyl-ethyl)-amide] | > 1000
Cc1cnc(Nc2ccccc2)nc1-c1c[nH]c(C(=O)NCCCc2ccccc2)c1 [III-a-112, 4-(5-Methyl-2-phenylamino-pyrimidin-4-yl)-1H-pyrrole-2-carboxylic acid (3-phenyl-propyl)-amide] | < 100
CCONc1ncc(C)c(-c2c[nH]c(C(=O)N[C@H](CO)c3ccccc3)c2)n1 [III-a-195, 4-(2-Ethoxyamino-5-methyl-pyrimidin-4-yl)-1H-pyrrole-2-carboxylic acid (2-hydroxy-1-phenyl-ethyl)-amide] | < 100
Cc1cnc(NCc2cccnc2)nc1-c1c[nH]c(C(=O)NC(CO)c2ccccc2)c1 (stereo not shown) [III-a-219, 4-{5-Methyl-2-[(pyridin-3-ylmethyl)-amino]-pyrimidin-4-yl}-1H-pyrrole-2-carboxylic acid (2-hydroxy-1-phenyl-ethyl)-amide] | < 100
CCCNc1ncc(C)c(-c2c[nH]c(C(=O)NC(CO)c3ccccc3)c2)n1 (stereo not shown) [III-a-163, 4-(5-Methyl-2-propylamino-pyrimidin-4-yl)-1H-pyrrole-2-carboxylic acid (2-hydroxy-1-phenyl-ethyl)-amide] | < 100
Cc1cnc(NOCC2CC2)nc1-c1c[nH]c(C(=O)NC(CO)c2ccccc2)c1 (stereo not shown) [III-a-220, 4-(2-Cyclopropylmethoxyamino-5-methyl-pyrimidin-4-yl)-1H-pyrrole-2-carboxylic acid (2-hydroxy-1-phenyl-ethyl)-amide] | < 100
Cc1cc(Nc2ncc(C)c(-c3c[nH]c(C(=O)NC(CO)c4ccccc4)c3)n2)no1 (stereo not shown) [III-a-229, 4-[5-Methyl-2-(5-methyl-isoxazol-3-ylamino)-pyrimidin-4-yl]-1H-pyrrole-2-carboxylic acid (2-hydroxy-1-phenyl-ethyl)-amide] | 100 to 1000
Cc1cnc(NC2CC2C)nc1-c1c[nH]c(C(=O)NC(CO)c2ccccc2)c1 (stereo not shown) [III-a-237, 4-[5-Methyl-2-(2-methyl-cyclopropylamino)-pyrimidin-4-yl]-1H-pyrrole-2-carboxylic acid (2-hydroxy-1-phenyl-ethyl)-amide] | < 100
CCOC(=O)NNc1ncc(C)c(-c2c[nH]c(C(=O)N[C@H](CO)c3ccccc3)c2)n1 [III-a-218, N′-{4-[5-(2-Hydroxy-1-phenyl-ethylcarbamoyl)-1H-pyrrol-3-yl]-5-methyl-pyrimidin-2-yl}-hydrazinecarboxylic acid ethyl ester] | 100 to 1000

The compounds below were run against T1, GSK-3β (AA 1–420) (Homo sapiens, UniProt P49841) (assay: GSK-3 inhibition assay (coupled enzyme system)). Settings: read-out: GSK3 Inhibitory Activity (Ki class).
T1 construct: GSK-3β (AA 1–420)
T1 sequence (P49841 whole entry, species assumed, the tested form may be a part): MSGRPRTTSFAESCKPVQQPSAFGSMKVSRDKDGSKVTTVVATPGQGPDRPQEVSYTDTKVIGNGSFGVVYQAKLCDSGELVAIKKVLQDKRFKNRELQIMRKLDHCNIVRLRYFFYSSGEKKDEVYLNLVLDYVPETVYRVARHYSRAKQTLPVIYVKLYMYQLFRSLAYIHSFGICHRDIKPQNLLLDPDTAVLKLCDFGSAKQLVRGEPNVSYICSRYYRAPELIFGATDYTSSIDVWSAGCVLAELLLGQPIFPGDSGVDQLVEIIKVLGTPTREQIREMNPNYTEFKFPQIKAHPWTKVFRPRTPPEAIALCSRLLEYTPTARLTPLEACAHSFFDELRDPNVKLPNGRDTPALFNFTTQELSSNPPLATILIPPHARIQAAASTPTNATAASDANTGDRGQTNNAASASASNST
Type: biochemical
Description: Final substrate concentrations in the assay were 20 μM ATP (Sigma Chemicals, St Louis, Mo.) and 300 μM peptide (HSSPHQS(PO3H2)EDEEE, American Peptide, Sunnyvale, Calif.). Reactions were carried out at 30° C. and 20 nM GSK-3β. Final concentrations of the components of the coupled enzyme system were 2.5 mM phosphoenolpyruvate, 300 μM NADH, 30 μg/ml pyruvate kinase and 10 μg/ml lactate dehydrogenase.
An assay stock buffer solution was prepared containing all of the reagents listed above with the exception of ATP and the test compound of interest. The assay stock buffer'solution (175 μl) was incubated in a 96 well plate with 5 μl of the test compound of interest at final concentrations spanning 0.002 μM to 30 μM at 30° C. for 10 min. […] The reaction was initiated by the addition of 20 μl of ATP (final concentration 20 μM). Rates of reaction were obtained using a Molecular Devices Spectramax plate reader (Sunnyvale, Calif.) over 10 min at 30° C. The Ki values were determined from the rate data as a function of inhibitor concentration.
The compound numbers correspond to the compound numbers in Table 1.

Compound | Ki [nM]
CCNc1ncc(COC)c(-c2c[nH]c(C(=O)NC(CO)c3ccccc3)c2)n1 (stereo not shown) [III-a-187, 4-(2-Ethylamino-5-methoxymethyl-pyrimidin-4-yl)-1H-pyrrole-2-carboxylic acid (2-hydroxy-1-phenyl-ethyl)-amide] | > 1000

Source: patent publication US7253187B2, “Heterocyclic inhibitors of ERK2 and uses thereof” (Vertex Pharmaceuticals Incorporated, priority 2001, dated 2007)
